For test [1], the system named is cutaneous metastasis of invasive ductal carcinoma (Her2/neu-negative). Nature of the test: Topical treatment of cutaneous metastasis of invasive ductal carcinoma in a patient (Example 2). It is filed as in vivo, human. Particulars: person two; 5% cream (ALDARA) topically five times per week for six months. Here is the method: (§1) The IRM compound used in the examples is 1-(2-methylpropyl)-1H-imidazo[4,5-c]quinolin-4-amine, formulated as a 5% cream available under the tradename ALDARA (3M Co., St. Paul, Minn.).
person two with invasive ductal carcinoma (UICC stage T2, pN1, B2, cM0) that was estrogen-negative, progesterone-negative, and Her2/neu-negative was treated by mastectomy and adjuvant chemotherapy. Infraclavicular and supraclavicular recurrences were treated with γ- and telecobalt radiation, intrarterial and intravenous chemotherapy. A diffuse cutaneous lesion occurred on the scapula that, upon histological examination, contained an infiltrative ductal growth pattern (FIG. 1I).
(§2) 1-(2-methylpropyl)-1H-imidazo[4,5-c]quinolin-4-amine was administered topically five times per week for six months.

Test [2] relates to cutaneous metastasis of Her2/neu-positive breast cancer (invasive lobular tumor cells). Briefly: Topical treatment of cutaneous metastasis of breast cancer in a patient (Example 1). It counts as in vivo, human. The conditions noted are these: person one. Here is the method:
as §1
person one with breast cancer (UICC stage pT1c, pN1b1, M0, G2, estrogen-positive, progesterone-positive) developed an axillary recurrence and osteolytic metastases (L2-4) despite axillary dissection and neoadjuvant and adjuvant chemotherapy. The recurrent tumor and metastases were treated with radiation. Nine months later, the breast cancer recurred locally (rpT1c, M1, G2, estrogen-negative, progesterone-negative, Her2/neu-positive) and was treated with trastuzumab and percutaneous radiation. An inflammatory erythema occurred on the upper back (FIG. 1A). On histology, invasive lobular tumor cells (keratin-positive, Her2/neu-positive, ICAM-1-positive) were present (FIGS. 1B-1E.
as §2

For `CC(C)Cn1cnc2c(N)nc3ccccc3c21` [1-(2-methylpropyl)-1H-imidazo[4,5-c]quinolin-4-amine], the “skin biopsy of an affected area after the treatment period” value in test [1] is “free of carcinoma cells”. Also, the “skin lesions upon gross examination or histological examination after the treatment period” value in test [2] (5% cream (ALDARA) topically five times per week for six months) was “no skin lesions were detected”. Further, the “time the patient has remained free of cutaneous metastasis” value in test [2] (after topical treatment five times per week for six months) is given as “more than ten months”.

The values above are taken from patent US8461174B2, “Treatment for cutaneous metastases” (3M Innovative Properties Company, priority 2004, dated 2013).
